Results taken from PubChem BioAssay (NCI).
“And” between values parts separate entries of the source, which are not always exact repeats. Identical values can stand only once.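 Briefly, cells in 96-well plates were exposed to five compound concentrations for 48 h, and endpoints were estimated by linear interpolation. At the GI50, growth is halved. Definition used: TGI = concentration required for complete inhibition of growth.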

What was measured:
Experiment in all cases: DTP human tumour cell line panel, 48 h
[1] = tested on: PC-3 prostate
[2] = tested on: OVCAR-8 ovarian
[3] = tested on: A549 NSCLC
[4] = tested on: BT-549 breast
[5] = tested on: HS 578T breast
[6] = tested on: RPMI-8226 leukemia
[7] = tested on: ACHN renal
[8] = tested on: NCI-H522 lung
[9] = tested on: SK-MEL-2 melanoma
[10] = tested on: MDA-MB-435

`Cc1ccc(/C=C2/SC(Nc3nc(-c4nc(NC5=NC(=O)/C(=C\c6ccc(C)cc6)S5)sc4C)c(C)s3)=NC2=O)cc1` was tested, and the GI50 [1] was 0.757 µM, the TGI [1] was > 50 µM and the GI50 [2] was 1.66 µM. The TGI [2] was > 31.6 µM, the GI50 [3] was 1.37 µM and the TGI [3] was > 36.6 µM. The GI50 [4] was 1.21 µM, the TGI [4] was 31.9 µM and the GI50 [5] was 0.0926 µM. For the same compound, the TGI [5] was 1.14 µM, the GI50 [6] was 1.27 µM and the TGI [6] was > 15 µM. For the same compound, the GI50 [7] was 0.559 µM, the TGI [7] was > 29.6 µM and the GI50 [8] was 0.857 µM. The TGI [8] was 25.9 µM, the GI50 [9] was 36.3 µM and the TGI [9] was > 50 µM.
`NNC(=O)CCC(=O)Nc1cc(Cl)c(Cl)cc1Cl` was tested, and the TGI [2] was > 100 µM, the TGI [3] was > 100 µM and the TGI [6] was > 100 µM. The TGI [7] was > 100 µM, the TGI [8] was > 100 µM and the TGI [9] was > 100 µM.
In the case of `COc1ccc(C2=NN(C(=O)COc3ccc(Cl)cc3)C(O)(c3ccc(Cl)cc3)C2)cc1` (centres undefined), the TGI [2] was > 100 µM, the TGI [3] was > 100 µM and the TGI [6] was > 100 µM. The TGI [7] was > 100 µM, the TGI [8] was > 100 µM and the TGI [9] was > 100 µM.
`COCC1N=C(c2cc(OC)c(OC)c(OC)c2-c2cc3c(cc2C2OCCCO2)OCO3)O[C@H]1c1ccccc1` (some centres undefined) was tested, and the TGI [2] was > 100 µM, the TGI [3] was > 100 µM and the TGI [6] was > 100 µM. For the same compound, the TGI [7] was > 100 µM, the TGI [8] was > 100 µM and the TGI [9] was > 100 µM.
With `CC1CC(c2cccc3c2OCO3)=Nc2ccccc2S1` (centres undefined) the TGI [2] was > 100 µM, the TGI [3] was > 100 µM and the TGI [6] was > 100 µM. The TGI [7] was > 100 µM, the TGI [8] was > 100 µM and the TGI [9] was > 100 µM.
In the case of `CC(/C(=N/NC(=O)C(N)=O)c1c(Cl)ccc(Cl)c1O)C1(O)C(=O)Nc2ccccc21` (centres undefined), the TGI [2] was > 100 µM, the TGI [3] was > 100 µM and the TGI [7] was > 100 µM. For the same compound, the TGI [8] was 44.6 µM and the TGI [9] was > 100 µM.
For `CS(=O)(=O)OCCn1cnc2nc(NC(=O)c3ccccc3)[nH]c(=O)c21`, the TGI [2] was > 100 µM, the TGI [3] was > 100 µM and the TGI [6] was > 100 µM. For the same compound, the TGI [7] was > 100 µM, the TGI [8] was > 100 µM and the TGI [9] was > 100 µM.
With `CC1=C(C(=O)Nc2cccc(Cl)c2)C(c2ccc([N+](=O)[O-])cc2)C(C(=O)Nc2cccc(Cl)c2)=C(C)N1` the TGI [2] was > 100 µM, the TGI [3] was > 100 µM and the TGI [6] was 83.4 µM. For the same compound, the TGI [7] was 97.9 µM, the TGI [8] was 89.9 µM and the TGI [9] was 32.9 µM.
`O=c1[nH]nc2ccccc2c1Cl` gave a TGI [2] of 54.3 µM, a TGI [3] of 91.5 µM and a TGI [6] of 8.87 µM. It also gave a TGI [7] of 30.8 µM and a TGI [9] of 33.6 µM.
In the case of `CCOC(=O)C1=C(NNC(=O)Cc2ccccc2)CSC1=Nc1ccccc1`, the TGI [2] was > 100 µM, the TGI [3] was > 100 µM and the TGI [7] was > 100 µM. The TGI [8] was > 100 µM and the TGI [9] was > 100 µM.
In the case of `C=C1C(=O)OC2C1CC[C@H](C)C13OC(=O)CC1[C@@]23C` (some centres undefined), the TGI [2] was > 100 µM, the TGI [3] was > 100 µM and the TGI [6] was > 100 µM. The TGI [7] was > 100 µM, the TGI [8] was > 100 µM and the TGI [9] was > 100 µM.
With `O=c1c(Sc2c(O)c3ccccc3c3ccccc3c2=O)c(O)c2ccccc2c2ccccc12` the TGI [2] was > 100 µM, the TGI [3] was > 100 µM and the TGI [6] was > 100 µM. The TGI [7] was 78.5 µM, the TGI [8] was 47.8 µM and the TGI [9] was 68.5 µM.
Compound `COc1ccc(-c2cc(-c3ccccc3)nc(N3CCN(CCNc4ccnc5cc(Cl)ccc45)CC3)n2)cc1` has a GI50 [3] of 1.9 µM, a TGI [3] of 4.39 µM and a GI50 [4] of 14.6 µM. It also gave a TGI [4] of 32.3 µM, a GI50 [5] of 11.3 µM and a TGI [5] of 41.9 µM. For the same compound, the GI50 [6] was 1.65 µM, the TGI [6] was 4.57 µM and the GI50 [7] was 3.8 µM. The TGI [7] was 14.4 µM, the GI50 [9] was 6.78 µM and the TGI [9] was 20.8 µM. The GI50 [10] was 1.8 µM and the TGI [10] was 3.31 µM.
`Cn1ccc2c(c1=O)C(=O)c1nccc3c1c-2nc1ccccc13` gave a GI50 [1] of 1.69 µM, a TGI [1] of 3.64 µM and a GI50 [3] of 1.47 µM. The TGI [3] was 2.9 µM, the GI50 [4] was 2.12 µM and the TGI [4] was 4.77 µM. It also gave a GI50 [6] of 2.58 µM, a TGI [6] of 8.68 µM and a GI50 [7] of 1.59 µM. The TGI [7] was 2.99 µM, the GI50 [10] was 1.62 µM and the TGI [10] was 3.13 µM.
`Fc1cccc2cc3ccc4cccc5ccc(c12)c3c45` was tested, and the TGI [2] was > 100 µM, the TGI [3] was > 100 µM and the TGI [7] was > 100 µM. The TGI [8] was > 100 µM.
For `CC(=O)Nc1ccc(/C=N\N2C(=O)c3ccccc3C2=O)cc1`, the TGI [2] was > 100 µM, the TGI [3] was > 100 µM and the TGI [6] was > 100 µM. For the same compound, the TGI [7] was > 100 µM and the TGI [9] was > 100 µM.
`COC(C(=O)C(O)C(C)O)C1Cc2cc3cc(OC4CC(OC(C)=O)C(OC5CC(O)C(OC)C(C)O5)C(C)O4)cc(O)c3c(O)c2C(=O)C1OC1CC(OC2CC(OC3CC(C)(O)C(OC(=O)C(C)C)C(C)O3)C(O)C(C)O2)C(O)C(C)O1` (centres undefined) was tested, and the GI50 [3] was 0.0328 µM and 0.00452 µM, the TGI [3] was 12.3 µM and 11.1 µM and the TGI [4] was 0.0444 µM. The TGI [5] was 0.175 µM, the TGI [6] was 0.202 µM and 0.14 µM and the TGI [7] was 0.198 µM. For the same compound, the GI50 [8] was 0.000196 µM, the GI50 [9] was 0.0189 µM and the TGI [9] was 0.042 µM and 0.0104 µM. The TGI [10] was 0.21 µM.
For `CN(C)CCNC(=O)c1ccc(C(=O)NCCN(C)C)c2nc3ccccc3cc12`, the TGI [2] was 12.7 µM, the TGI [3] was 13 µM and the TGI [7] was 8.58 µM. It also gave a TGI [8] of 1.93 µM and a TGI [9] of 2.57 µM.
Work on `N#Cc1c(N)nc(N2CCOCC2)c(C#N)c1-c1ccc(Cl)cc1` yielded a GI50 [1] of 16.6 µM, a TGI [1] of 70.1 µM and a GI50 [2] of 28 µM. The TGI [2] was > 100 µM, the GI50 [3] was 42.6 µM and the TGI [3] was > 100 µM. The GI50 [4] was 32 µM, the TGI [4] was > 100 µM and the GI50 [5] was 40.6 µM. For the same compound, the TGI [5] was > 100 µM, the GI50 [6] was 26.5 µM and the TGI [6] was > 100 µM. For the same compound, the GI50 [9] was 18.1 µM, the TGI [9] was 56.2 µM and the GI50 [10] was 65.3 µM. For the same compound, the TGI [10] was > 100 µM.
For `CN(C)c1ccc(-c2cc(-c3ccc(Nc4nc(Nc5ccccc5)nc(Nc5ccc(Cl)cc5)n4)cc3)nc(N)n2)cc1`, the GI50 [2] was 5.24 µM, the TGI [2] was > 100 µM and the GI50 [3] was 5.34 µM. For the same compound, the TGI [3] was > 100 µM, the GI50 [4] was 3.64 µM and the TGI [4] was 25 µM. The GI50 [5] was 2.57 µM, the TGI [5] was 20.2 µM and the GI50 [6] was 3.32 µM. For the same compound, the TGI [6] was 20 µM, the GI50 [7] was 5.88 µM and the TGI [7] was > 100 µM. It also gave a GI50 [8] of 5.8 µM, a TGI [8] of 38.7 µM and a GI50 [9] of 7.18 µM. For the same compound, the TGI [9] was 43.5 µM, the GI50 [10] was 4.83 µM and the TGI [10] was 74.9 µM.
With `CCCCCCCCC(=O)N(C)C1C2CN3CCC(O2)C13` (centres undefined) the TGI [3] was > 100 µM, the TGI [6] was > 100 µM and the TGI [7] was > 100 µM. The TGI [8] was > 100 µM and the TGI [9] was > 100 µM.
For `[C-]#[O+].[C-]#[O+].[C-]#[O+].[C-]#[O+].[Ir].[Ir].[O-]c1ccc2ccccc2c1C=Nc1ccc(N=Cc2c([O-])ccc3ccccc23)cc1`, the GI50 [2] was > 100 µM, the TGI [2] was > 100 µM and the GI50 [3] was > 100 µM. The TGI [3] was > 100 µM, the GI50 [6] was > 100 µM and the TGI [6] was > 100 µM. For the same compound, the GI50 [7] was > 100 µM, the TGI [7] was > 100 µM and the GI50 [9] was > 100 µM. The TGI [9] was > 100 µM.
`CCN(CCNc1ccc(C)c2sc3cc(Cl)ccc3c(=O)c12)CC(C)O` (centres undefined) showed a GI50 [1] of 1.74 µM, a TGI [1] of 3.31 µM and a GI50 [3] of 1.85 µM. It also gave a TGI [3] of 3.45 µM, a GI50 [4] of 2.71 µM and a TGI [4] of 10.1 µM. The GI50 [5] was 2.23 µM, the TGI [5] was 4.35 µM and the GI50 [6] was 1.71 µM. It also gave a TGI [6] of 3.67 µM, a GI50 [7] of 1.85 µM and a TGI [7] of 3.48 µM. The GI50 [10] was 1.64 µM and the TGI [10] was 3.27 µM.
